Reference: the supplement of paper PMC10307832

Tests used:
Test in all cases: relative viability (nuclei count vs DMSO), 5 days (fraction); higher = more cells survive
Decitabine + Pemetrexed = compound: Nc1ncn([C@H]2C[C@H](O)[C@@H](CO)O2)c(=O)n1 [Decitabine] + Nc1nc2[nH]cc(CCc3ccc(C(=O)N[C@@H](CCC(=O)O)C(=O)O)cc3)c2c(=O)[nH]1 [Pemetrexed] (partner 0.2 µM)
Procedure, shortened: (§1)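 Lung cancer cell lines in 1536-well plates got either a single drug or a fixed anchor-drug dose together with five library-drug doses (not always all listed) in √10 steps, by pin tool, on the day after seeding. Nuclei were counted after 5 days, and relative viability is the treated-to-vehicle ratio of nuclei counts. Values are medians of duplicate plates.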

[1] = compound: O=C(C[C@H]1NCCC[C@@H]1O)Cn1cnc2cc(Br)c(Cl)cc2c1=O (racemic) [Halofuginone] + Nc1ncn([C@H]2C[C@H](O)[C@@H](CO)O2)c(=O)n1 [Decitabine] (partner 2 µM)
Procedure, shortened: as §1

Decitabine + Phenformin = compound: Nc1ncn([C@H]2C[C@H](O)[C@@H](CO)O2)c(=O)n1 [Decitabine] + N=C(N)NC(=N)NCCc1ccccc1 [Phenformin] (partner 250 µM)
Procedure, shortened: as §1

Decitabine + Trametinib = compound: Nc1ncn([C@H]2C[C@H](O)[C@@H](CO)O2)c(=O)n1 [Decitabine] + CC(=O)Nc1cccc(-n2c(=O)n(C3CC3)c(=O)c3c(Nc4ccc(I)cc4F)n(C)c(=O)c(C)c32)c1 [Trametinib] (partner 0.02 µM)
Procedure, shortened: as §1

Cell Line	relative viability (Decitabine + Pemetrexed; first compound 0.04 µM)	relative viability (Decitabine + Pemetrexed; first compound 0.1265 µM)	relative viability (Decitabine + Pemetrexed; first compound 0.4 µM)	relative viability (Decitabine + Pemetrexed; first compound 1.265 µM)	relative viability (Decitabine + Pemetrexed; first compound 4 µM)	relative viability ([1]; first compound 0.001 µM)	relative viability ([1]; first compound 0.003162 µM)	relative viability ([1]; first compound 0.01 µM)	relative viability ([1]; first compound 0.03162 µM)	relative viability ([1]; first compound 0.1 µM)	relative viability (Decitabine + Phenformin; first compound 0.04 µM)	relative viability (Decitabine + Phenformin; first compound 0.1265 µM)	relative viability (Decitabine + Phenformin; first compound 0.4 µM)	relative viability (Decitabine + Phenformin; first compound 1.265 µM)	relative viability (Decitabine + Phenformin; first compound 4 µM)	relative viability (Decitabine + Trametinib; first compound 0.04 µM)	relative viability (Decitabine + Trametinib; first compound 0.1265 µM)	relative viability (Decitabine + Trametinib; first compound 0.4 µM)	relative viability (Decitabine + Trametinib; first compound 1.265 µM)	relative viability (Decitabine + Trametinib; first compound 4 µM)
SW 1573	0.812	0.844	0.87	0.494	0.323	0.627	0.552	0.491	0.282	0.135	0.32	0.327	0.323	0.287	0.168	0.44	0.638	0.368	0.27	0.301
NCI-H2228	0.232	0.208	0.179	0.166	0.163						0.271	0.252	0.103	0.154	0.192	0.396	0.394	0.358	0.198	0.204
NCI-H1650	0.325	0.311	0.27	0.25	0.25	0.468	0.5	0.439	0.491	0.369	0.309	0.386	0.303	0.246	0.361	0.369	0.642	0.536	0.326	0.287
NCI-H358	0.152	0.168	0.129	0.131	0.161	0.227	0.239	0.2	0.135	0.119	0.246	0.258	0.168	0.148	0.136	0.132	0.124	0.137	0.121	0.126
